This is an account of results in patent publication US20200325449A1, “COMPLEMENT INHIBITION FOR IMPROVING CELL VIABILITY” (THE CLEVELAND CLINIC FOUNDATION, priority 2016, published 2020).

Entries after “also recorded” stand apart in the source; their conditions may differ.

The target in one experiment is T1, C3aR on neutrophils (Homo sapiens, UniProt Q16581).
T1 construct: endogenous in cells; host or cells: human neutrophils from donor blood or differentiated from HL-60 cells
T1 sequence (Q16581 1-482): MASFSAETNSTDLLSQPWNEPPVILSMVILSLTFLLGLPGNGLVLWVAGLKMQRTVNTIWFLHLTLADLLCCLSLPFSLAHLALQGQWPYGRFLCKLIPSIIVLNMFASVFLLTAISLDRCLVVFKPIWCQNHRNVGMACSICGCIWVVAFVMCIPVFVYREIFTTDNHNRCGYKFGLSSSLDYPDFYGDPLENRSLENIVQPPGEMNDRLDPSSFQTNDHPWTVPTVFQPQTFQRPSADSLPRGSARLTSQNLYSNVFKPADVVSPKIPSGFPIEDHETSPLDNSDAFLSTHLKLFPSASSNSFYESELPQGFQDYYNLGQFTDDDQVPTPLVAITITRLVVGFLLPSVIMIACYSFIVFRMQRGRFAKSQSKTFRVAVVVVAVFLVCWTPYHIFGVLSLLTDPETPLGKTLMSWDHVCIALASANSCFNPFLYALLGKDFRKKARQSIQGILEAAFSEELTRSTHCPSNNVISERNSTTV
Put plainly: Neutrophil- and NHS-mediated MSC damage assay with C3aR antagonist. To be noted: HL60-derived neutrophils plus 30% NHS; antagonist alone, 10 μM. Type of experiment: cell-based. As for the experimental part:
Neutrophil-mediated MSC damage assay. Human neutrophils, either purified from healthy donor peripheral blood mononuclear cells (PBMCs) by Ficoll centrifugation (provided by the Hematopoietic Stem Cells Core Facility at Case Western Reserve University) or differentiated from the neutrophil progenitor cell line HL-60 (ATCC), were used. Collins et al., Proc Natl Acad Sci USA. 1978; 75:2458-62. In some experiments, neutrophil-mediated MSC damage was assessed using a similar BCECF-based assay to that already described. In brief, 2×10^4 MSCs were labeled with BCECF-AM as described above, then, after washing, the labeled MSC were incubated for 30 min at 37° C. with different numbers of neutrophils in the presence or absence of 30% NHS in 100 μl of GVB++ buffer with various concentrations of the neutrophil function inhibitor wortmannin that inhibits oxidative burst (Sue-A-Quan et al., Journal of cellular physiology. 1997; 172:94-108) (Cayman Chemical, Ann Arbor, Mich.) and released BCECF in the supernatants was measured as described. The percentage BCECF release (cell injury) was calculated as above. […]

Experiment [1] has as its system human IgGs and IgMs on MSCs. Put plainly: MSC serum immunoglobulin binding assay. Type of experiment: cell-based. The following applies: MSCs cultured with Neu5AC, then pooled normal human serum. As for the experimental part: MSC serum immunoglobulin binding assay. MSCs (0.5×10^6) cultured in the presence or absence of 3 mM of Neu5AC for a week were incubated for 30 min on ice with 30% pooled normal human serum in PBS. After washing, the cells were stained for cell surface-bound human IgGs and IgMs with 2 μg/ml of anti-human IgG or anti-human IgM antibodies (Jackson ImmunoResearch Laboratories, West Grove, Pa.) and examined by flow cytometry.

Experiment [2] relates to MSCs. The experiment is described as follows: In vitro damage of MSCs (BCECF release) after contact with serum. It counts as cell-based. The following applies: MSCs cultured with Neu5AC (lower Neu5GC levels) vs without; 20% or 30% normal human serum. Here is the method: Measurement of in vitro damage of MSCs. An established fluorescence dye release assay was used to assess MSC injury after contact with serum. In brief, 2×10^5 heparin-painted or mock-painted MSCs were first loaded by incubation for 30 min at 37° C. with 5 μM 2′,7′-bis-(2-carboxyethyl)-5-(and-6)-carboxyfluorescein acetoxymethyl ester (BCECF-AM) (Thermo Fisher Scientific™, Grand Island, N.Y.). After 3 washes, the BCECF-loaded MSCs were incubated for 30 min at 37° C. with 20 or 30% normal human serum in 100 μL of GVB++, then the cells were removed by centrifugation and released BCECF in the supernatant measured on a SpectraMax Gemini XS (Molecular Devices, Sunnyvale, Calif.) with excitation and emission wavelengths, respectively, of 485 nm and 538 nm. The MSC damage (percentage of BCECF release) was calculated as ([A−B]/[C−B])×100%, where A represents the mean experimental BCECF release, B the mean spontaneous BCECF release, and C the mean maximum BCECF release induced by incubating the cells with 0.1% Triton-X100.

Another experiment concerns Neu5GC on MSCs. The experiment is described as follows: Neu5GC detection on MSCs. Type of experiment: cell-based, human. To be noted: MSCs cultured 7 days with Neu5AC in complete medium vs without. Here is the method: Neu5GC detection on MSCs. This was performed as described previously by Ghaderi et al. In brief, after blocking with a 0.5% solution of fish skin gelatin (Sigma-Aldrich, St. Louis, Mo.), MSCs were incubated for 30 min on ice with 5 μg/ml of chicken anti-Neu5GC IgY or control IgY, then were washed, stained with 5 μg/ml of fluorescein isothiocyanate (FITC)-labeled anti-IgY antibody (Jackson ImmunoResearch Laboratories, West Grove, Pa.), and analyzed on a flow cytometer (BD FACSCalibur, San Jose, Calif.).

For experiment [3], the system named is complement classical pathway. Put plainly: Complement classical pathway activation ex vivo assay (EshA C3b deposition). It counts as in vivo. The following applies: plasma of WT C57BL/6 mice 30 min after s.c. heparin 20 U/mouse vs saline. As for the experimental part: (§1) Complement alternative pathway and classical pathway activation ex vivo assays. Mice were injected subcutaneously (s.c.) with 20 U of heparin (MP Biomedicals, Solon, Ohio) in saline or saline alone, then blood samples were collected 30 min later and immediately centrifuged for 5 min at 4° C. to collect the plasma. The activity of the complement alternative pathway was assessed using a zymosan C3b deposition assay and complement classical pathway activity was measured using an antibody-sensitized sheep erythrocytes (EshA) C3b deposition assay.

Experiment [4] has as its system MSCs. The experiment is described as follows: In vivo damage of MSCs (BCECF release in plasma). To be noted: BCECF-labeled MSCs infused via tail vein 10 min after s.c. heparin vs saline. Also on record: species or system mice. Here is the method: Measurement of in vivo damage of MSCs. In vivo MSC damage after infusion was also examined using a BCECF release assay. In brief, each mouse was injected subcutaneously with 500 U of heparin in saline or saline alone, then 1×10^6 MSCs labeled with BCECF were injected by the tail vein, then blood samples were collected after 0, 20, 40, and 60 min and released BCECF in the plasma measured on a SpectraMax Gemini XS (Molecular Devices, Sunnyvale, Calif.) as above.
To evaluate in vivo damage to MSCs with or without heparin painting, 0.5×10^6 heparin-painted or mock-painted MSCs were labeled with BCECF, then injected into the tail vein and blood sample collected and the plasma assayed for levels of released BCECF as above.

For experiment [5], the system named is complement alternative pathway. The experiment is described as follows: Complement alternative pathway activation ex vivo assay (zymosan C3b deposition). Type of experiment: in vivo. The following applies: plasma of WT C57BL/6 mice 30 min after s.c. heparin 20 U/mouse vs saline. As for the experimental part: as §1
The subject of a further experiment is primary neutrophils. Put plainly: Primary neutrophil-mediated MSC damage with purified C5a. The following applies: purified human C5a 50 ng/ml, no NHS, 4 h. It counts as cell-based. Here is the method:
Neutrophil-mediated MSC damage assay. Human neutrophils, either purified from healthy donor peripheral blood mononuclear cells (PBMCs) by Ficoll centrifugation (provided by the Hematopoietic Stem Cells Core Facility at Case Western Reserve University) or differentiated from the neutrophil progenitor cell line HL-60 (ATCC), were used. Collins et al., Proc Natl Acad Sci USA. 1978; 75:2458-62. In some experiments, neutrophil-mediated MSC damage was assessed using a similar BCECF-based assay to that already described. In brief, 2×10^4 MSCs were labeled with BCECF-AM as described above, then, after washing, […] neutrophils in the presence or absence of 30% NHS in 100 μl of GVB++ buffer with various concentrations of the neutrophil function inhibitor wortmannin that inhibits oxidative burst (Sue-A-Quan et al., Journal of cellular physiology. 1997; 172:94-108) (Cayman Chemical, Ann Arbor, Mich.) and released BCECF in the supernatants was measured as described. The percentage BCECF release (cell injury) was calculated as above. In some experiments, a C5aR antagonist (JPE1375, Calbiochem, Billerica, Mass.)[27] or a C3aR antagonist (SB 290157, Calbiochem, Billerica, Mass.)[28] were added, both at […], to assess the role of C3aR and C5aR on neutrophils, while, in other experiments, NHS was omitted and 50 ng/ml of purified C5a (Complement technology Inc, Tyler, Tex.) added instead.

The test system of another experiment is neutrophils. To be noted: Ehrengruber et al. 1994; cited from earlier work.

With `NC(N)=NCCC[C@H](NC(=O)COCC(c1ccccc1)c1ccccc1)C(=O)O` [C3aR antagonist], the “neutrophil-mediated MSC damage (BCECF release)” value on C3aR on neutrophils was “no appreciable effect”.

Consider `CC(=O)N[C@H]1[C@H]([C@H](O)[C@H](O)CO)OC(O)(C(=O)O)C[C@@H]1O` (stereo partly drawn) [Neu5AC, N-acetylneuraminic acid], for which the “amount of bound IgM and IgG on MSCs” value in experiment [1] is reported as “decrease”. Also, the “complement-mediated MSC injury” value in the experiment with MSCs [2] is listed as “less complement-mediated injury; also recorded: moderate reduction”. Moreover, in the experiment with Neu5GC on MSCs, the “Neu5GC levels on the MSC surface” value is “significantly reduced”.

Take heparin: the “C3 deposition on the surface of EshA (classical pathway)” value in experiment [3] is listed as “markedly reduced”. Besides, the “in vivo MSC cell damage (released BCECF in the plasma)” value with MSCs [4] was “protected”. Also, in experiment [5], the “C3 deposition on the surface of zymosan (alternative pathway)” value was “markedly reduced”.

B1: C5a: purified human C5a, anaphylatoxin (Complement technology Inc) (protein, UniProt P01031 678-751, looked up)
C5a anaphylatoxin: TLQKKIEEIAAKYKHSVVKKCCYDGACVNNDETCEQRAARISLGPRCIKAFTECCVVASQLRANISHKDMQLGR
modifications: C5a anaphylatoxin
As to B1, the “MSC damage by primary neutrophils” value in the experiment with primary neutrophils is “significant MSC damage”. For the same molecule, in the experiment with neutrophils, the “potency in activating neutrophils relative to C3a” value is given as 50-100 times.
